In general, GI50 refers to the concentration at which growth is held to half of that of the control.

Results on three compounds are retold here after patent US10975082B2, “Inhibitor of FLT3 kinase and use thereof” (PRECEDO PHARMACEUTICALS CO., LTD, priority 2016, dated 2021).

A value given as a limit tells only on which side of the number the result lay.

Data set [1] deals with MOLM-13, MOLM-14 and MV-4-11 cell lines. Put plainly: Cell cycle distribution by flow cytometry (PI). It counts as cell-based, human. The settings on record: MOLM-13, MOLM-14 and MV-4-11, 12 or 24 hours; Compound 1 0.01-0.1 μM, AC220 0.1 μM.
Data set [2] has as its system MOLM-14 cells. Put plainly: Nude mouse model harboring subcutaneous tumor. It counts as in vivo. As to conditions: 28 days. Here is the method:
The first day of administration was recorded as day 0, followed by continuous administration for 28 days (FIG. 4).

Data set [3] concerns PARP and Caspase 3. Put plainly: Cell apoptosis, Western Blot of PARP and Caspase 3 cleavage. (In general: In western blotting, separated proteins are transferred to a membrane and probed.)
Source text: Western Blot was used to detect the effects of different concentrations of compounds on protein cleavage of the DNA repairase poly(ADP-ribose) polymerase (PARP) and Caspase (cysteinyl aspartate-specific proteinase) 3, wherein glyceraldehyde-3-phosphate dehydrogenase (GAPDH) was used as the internal standard protein.
Data set [4] relates to STAT5. Kind of data set: Signaling pathways of FLT3 in cells: STAT5 phosphorylation. It counts as cell-based, human. As to conditions: MV-4-11, MOLM-13 and MOLM-14 cells, 4 hours; Compound 1 0.001-0.3 μM, AC220 0.1 μM.
In data set [5] the test system is BaF3-TEL-PDGFRa. Kind of data set: Cell proliferation, Cell Titer-Glo, GI50. It is filed as cell-based. As to conditions: Mus musculus, 72 hours. Here is the method: (§1) Compounds of the invention were evaluated for their inhibitory effects on proliferation of cancer cells as well as the selectivity thereof by testing their effects on growth of cancer cells (Table 2).
(§2) Mouse BaF3-FLT3[ITD] (stably expressing FLT3[ITD] mutant activated kinase), mouse tel-BaF3-FLT3-D835Y (stably expressing FLT3[D835Y]mutant activated kinase), mouse tel-BaF3-BMX (stably expressing BMX kinase), mouse tel-FLT3-BaF3 (stably expressing FLT3 kinase), mouse BaF3-FLT3-ITD-D835Y (stably expressing FLT3[ITD+D835Y]mutant activated kinase), mouse BaF3-FLT3-ITD-F691L (stably expressing FLT3[ITD+F691L]mutant activated kinase), mouse tel-cKIT-BaF3 (stably expressing cKIT kinase), mouse BaF3-tel-cKit-N882K (stably expressing cKIT-N882K mutant activated kinase), mouse BaF3-tel-cKit-D816V (stably expressing cKIT-D816V mutant activated kinase), mouse BaF3-tel-cKit-T670I (stably expressing cKIT-T670I mutant activated kinase), mouse TPR-MET-BaF3 (stably expressing MET kinase), mouse tel-BaF3-EGFR (stably expressing EGFR kinase), mouse BaF3-FL-EGFR-L858R (stably expressing EGFR[L858R]mutant activated kinase), mouse tel-BaF3-BLK (stably expressing BLK kinase), mouse tel-JAK1-BaF3 (stably expressing JAK1 kinase) and the like were also used (see Table 2 for details). The above cell lines were all constructed by our laboratory according to the following method: the kinase region sequences of human FLT3/ITD, FLT3 D835Y, BMX, FLT3, FLT3[ITD+D835Y], FLT3[ITD+F691L], cKIT, cKIT [N882K], cKIT [D816V], cKIT [T670I], MET, EGFR, EGFR [L858R], BLK, JAK1, FLT3[K663Q], FLT3[D835V], FLT3[D835H], PDGFRa, PEGFRb, VEGFR2, JAK2, JAK3, ABL were amplified by PCR, and inserted into MSCV-Puro vectors with N-terminal TEL or TPR fragments (purchased from Clontech), respectively. The vectors were stably transfected into mouse BaF3 cells (purchased from ATCC) by means of retrovirus, and the growth factor IL-3 were removed, eventually obtaining cell lines that are transferred protein (FLT3/ITD, FLT3 D835Y, BMX, FLT3, FLT3[ITD D835Y], FLT3[ITD+F691L], cKIT, cKIT [N882K], cKIT [D816V], cKIT [T670I], MET, EGFR, EGFR [L858R], BLK, JAK1, FLT3[K663Q], FLT3[D835V], FLT3[D835H], PDGFRa, PEGFRb, VEGFR2, JAK2, JAK3, ABL)-dependent.
(§3) Then the number of viable cells was determined by quantification of ATP in living cells using Cell Titer-Glo® (Promega, the USA) Luminescent Cell Viability Assay kit and thereby GI50 was calculated.
(ATP-based viability assays read luminescence as a measure of living cells.)

The test system of data set [6] is BaF3-TEL-FLT3. Put plainly: Cell proliferation, Cell Titer-Glo, GI50. It is filed as cell-based. The settings on record: Mus musculus; BaF3-TEL-FLT3, 72 hours. Here is the method: as §1, §2, §3
Data set [7] concerns BaF3-TEL-PEGFRb. Kind of data set: Cell proliferation, Cell Titer-Glo, GI50. It counts as cell-based. The settings on record: Mus musculus, 72 hours. Here is the method:
as §1, §2, §3

Data set [8] concerns BaF3-TEL-FLT3 [D835H]. Put plainly: Cell proliferation, Cell Titer-Glo, GI50. It is filed as cell-based. As to conditions: Mus musculus, 72 hours. Here is the method: as §1, §2, §3
Data set [9] relates to BaF3-FLT3 [ITD + D835Y]. Put plainly: Cell proliferation, Cell Titer-Glo, GI50. It counts as cell-based. As to conditions: Mus musculus, Ba/F3 FLT3-ITD, 72 hours. The method, then: as §1, §2, §3
Data set [10] relates to BaF3-TEL-cKit [N882K]. Put plainly: Cell proliferation, Cell Titer-Glo, GI50. It is filed as cell-based. As to conditions: Mus musculus, 72 hours. Here is the method: as §1, §2, §3
Data set [11] has as its system BaF3-TEL-cKIT. Kind of data set: Cell proliferation, Cell Titer-Glo, GI50. It counts as cell-based. As to conditions: Mus musculus, 72 hours. The method, then: as §1, §2, §3
In data set [12] the test system is BaF3-TEL-FLT3 [K663Q]. Put plainly: Cell proliferation, Cell Titer-Glo, GI50. As to conditions: Mus musculus, 72 hours. It is filed as cell-based. The method, then:
as §1, §2, §3

For data set [13], the system named is BaF3-TEL-FLT3 [D835V]. Kind of data set: Cell proliferation, Cell Titer-Glo, GI50. It is filed as cell-based. As to conditions: Mus musculus, 72 hours. The method, then: as §1, §2, §3
The test system of data set [14] is BaF3-TEL-BMX. Put plainly: Cell proliferation, Cell Titer-Glo, GI50. It counts as cell-based. As to conditions: Mus musculus, 72 hours. Here is the method: as §1, §2, §3
The subject of data set [15] is BaF3-FLT3 [ITD]. Kind of data set: Cell proliferation, Cell Titer-Glo, GI50. It is filed as cell-based. The settings on record: Mus musculus, Ba/F3 FLT3-ITD, 72 hours. Here is the method: as §1, §2, §3
The test system of data set [16] is BaF3-TEL-FLT3 [D835Y]. Put plainly: Cell proliferation, Cell Titer-Glo, GI50. It counts as cell-based. The settings on record: Mus musculus, 72 hours. The method, then: as §1, §2, §3
For data set [17], the system named is BaF3-TEL-cKit [T670I]. Put plainly: Cell proliferation, Cell Titer-Glo, GI50. It counts as cell-based. As to conditions: Mus musculus, 72 hours. Here is the method: as §1, §2, §3
The subject of data set [18] is BaF3-TEL-cKit [D816V]. Kind of data set: Cell proliferation, Cell Titer-Glo, GI50. It is filed as cell-based. As to conditions: Mus musculus, 72 hours. The method, then:
as §1, §2, §3

In data set [19] the test system is BaF3-FLT3 [ITD + F691L]. Kind of data set: Cell proliferation, Cell Titer-Glo, GI50. The settings on record: Mus musculus, Ba/F3 FLT3-ITD, 72 hours. It is filed as cell-based. Here is the method: as §1, §2, §3
The subject of data set [20] is BaF3. Put plainly: Cell proliferation, Cell Titer-Glo, GI50. It counts as cell-based. The settings on record: Mus musculus; BaF3, 72 hours. Here is the method: as §1
(§4) In this example the following cells were selected: human acute myeloid leukemia cells MV-4-11 (expressing FLT3[ITD] mutant gene), human acute myeloid leukemia cells MOLM-13 (expressing FLT3[ITD] mutant gene and wild-type FLT3 gene), human acute myeloid leukemia cells MOLM-14 (expressing FLT3[ITD] mutant gene and wild-type FLT3 gene), human acute myeloid leukemia cells OCI-AML3 (expressing FLT3[A680V] mutant gene), human acute myeloid leukemia cells U937 (expressing wild-type FLT3 gene), and mouse pro-B cells BaF3, and the above cells were purchased from ATCC.
as §3

Data set [21] concerns U937. Put plainly: Cancer cell proliferation, Cell Titer-Glo, GI50. It is filed as cell-based. The settings on record: Homo sapiens, U-937; U937, 72 hours. The method, then:
as §1, §4, §3

In data set [22] the test system is MV-4-11. Put plainly: Cancer cell proliferation, Cell Titer-Glo, GI50. It counts as cell-based. As to conditions: Homo sapiens, MV4-11; MV-4-11, 72 hours. The method, then:
as §1, §4, §3

In data set [23] the test system is MOLM-14. Kind of data set: Cancer cell proliferation, Cell Titer-Glo, GI50. It counts as cell-based. As to conditions: Homo sapiens; MOLM-14, 72 hours. The method, then: as §1, §4, §3

For the compound `CC(C)(C)c1cc(NC(=O)Nc2ccc(-n3nc(-c4ccc(OCCN5CCOCC5)cc4)c4c(N)ncnc43)cc2)no1` [Compound 1, 1-(4-(4-amino-3-(4-(2-morpholinoethoxy)phenyl)-1H-pyrazolo[3,4-d]pyrimidin-1-yl)phenyl)-3-(5-(tert-butyl)isoxazol-3-yl)urea], the cell cycle distribution entry in data set [1] is “arrested the cell cycle at phase G0-G1”. Moreover, the mice body weight result in [2] (3.75 mg/kg daily oral gavage) is listed as “no significant decrease”; in data set [2] (15 mg/kg daily oral gavage), “did not decrease”; in [2] ([…] daily oral gavage), “did not decrease”. The “cleavage of Caspase 3” value in data set [3] (MOLM-13, 0.003 μM, 12 hours) is “significant cleavage”. In addition, the “cleavage of the DNA repairase poly(ADP-ribose) polymerase (PARP)” value was “significant cleavage” in data set [3] (MOLM-13, 0.003 μM, 12 hours) and “even more significant” in data set [3] (MV-4-11, 24 hours). In addition, the “phosphorylation of STAT5” value in [4] is “significant inhibition”.
Take `CC(=O)N1CCN(Cc2ccc(-c3nn(-c4ccc(NC(=O)Nc5cc(C(C)(C)C)on5)cc4)c4ncnc(N)c34)cc2)CC1` [Compound 21, 1-(4-(3-(4-((4-acetylpiperazin-1-yl)methyl)phenyl)-4amino-1H-pyrazolo[3,4-d]pyrimidin-1-yl)phenyl)-3-(5-(tert-butyl)isoxazol-3-yl)urea]: the GI50 is 2 nM in data set [5]; 1 nM in data set [6]; 10 nM in data set [7]; less than 0.3 nM in [8]; 59 nM in [9]; 10 nM in [10]. In addition, the GI50 in data set [11] is 31 nM; in data set [12], 3600 nM; in data set [13] it was 4 nM; in data set [14], 5300 nM; in data set [15], less than 0.3 nM; in [16], 9 nM. Also, the GI50 in data set [17] is 4 nM; in data set [18], 1800 nM; in [19], 120 nM; in data set [20] it was roughly 10000 nM; in data set [21] it was 2300 nM; in data set [22], less than 0.3 nM. In data set [23], the GI50 is less than 0.3 nM.
Take `CC(C)(C)c1cc(NC(=O)Nc2ccc(-n3nc(-c4ccc(OCCN5CCN(S(C)(=O)=O)CC5)cc4)c4c(N)ncnc43)cc2)no1` [Compound 22, 1-(4-(4-amino-3-(4-(2-(4-(methanesulfonyl)piperazin-1-yl)ethoxy)phenyl)-1H-pyrazolo[3,4-d]pyrimidin-1-yl)phenyl)-3-(5-(tert-butyl)isoxazol-3-yl)urea]: the GI50 in data set [5] stood at 2 nM; in data set [6], 1 nM; in data set [7], 12 nM; in data set [8] it was 4 nM; in data set [9], 100 nM; in data set [10], 15 nM. Besides, the GI50 in data set [11] was 40 nM; in data set [12], 3800 nM; in [13], 17 nM; in data set [14] it was 2000 nM; in [15], less than 0.3 nM; in data set [16], 20 nM. The GI50 was 13 nM in data set [17]; 2200 nM in data set [18]; 39 nM in data set [19]; 6500 nM in data set [20]; 8500 nM in data set [21]; less than 0.3 nM in data set [22]. The 50% growth inhibitory concentration (GI50) in [23] is less than 0.3 nM.
